# US10125118B2, “Heteroaryl compounds and their use as therapeutic drugs” (Dong-A Socio Holdings Co., Ltd., priority 2015, dated 2018)
# Target: human c-MER catalytic domain (Homo sapiens (Human), UniProt Q12866)
# Test: LanthaScreen TR-FRET kinase assay, c-MER
# Details: read-out: Mer TK inhibition (IC50); Biochemical IC50, TR-FRET, 10 uM ATP
# Sequence of human c-MER catalytic domain (Q12866 587-858): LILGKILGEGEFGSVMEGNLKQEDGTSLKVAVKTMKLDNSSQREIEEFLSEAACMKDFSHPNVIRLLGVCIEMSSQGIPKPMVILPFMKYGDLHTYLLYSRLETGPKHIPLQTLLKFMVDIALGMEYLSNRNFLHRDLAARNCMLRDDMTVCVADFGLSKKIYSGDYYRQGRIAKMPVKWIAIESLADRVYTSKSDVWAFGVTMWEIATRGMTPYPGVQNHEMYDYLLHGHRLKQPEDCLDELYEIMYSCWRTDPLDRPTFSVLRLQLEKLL
row,Structure (SMILES),IC50 [µM]
1,"Cn1cc(-c2cnc(N)c(C(=O)N[C@H]3CCC[C@@H]3OCc3cc(F)c(F)cc3F)c2)cn1 (relative stereo) [Example 50, 2-amino-5-(1-methyl-1H-pyrazol-4-yl)-N-(trans-2-((2,4,5-trifluorobenzyl)oxy)cyclopentyl)nicotinamide]",> 1
2,"Cn1cc(-c2cnc(N)c(C(=O)N[C@H]3CCC[C@@H]3OCc3ccccc3-c3ccccc3)c2)cn1 (relative stereo) [Example 66, N-(trans-2-([1,1′-biphenyl]-2-ylmethoxy)cyclopentyl)-2-amino-5-(1-methyl-1H-pyrazol-4-yl)nicotinamide]",> 1
3,"Cn1cc(-c2cnc(N)c(C(=O)N[C@H]3CCC[C@H]3O)c2)cn1 (relative stereo) [Example 70, 2-amino-N-(cis-2-hydroxycyclopentyl)-5-(1-methyl-1H-pyrazol-4-yl)nicotinamide]",> 1
4,"CN(Cc1ccccc1)[C@H]1CCC[C@@H]1NC(=O)c1cc(-c2cnn(C)c2)cnc1N (relative stereo) [Example 76, 2-amino-N-(trans-2-(benzyl(methyl)amino)cyclopentyl)-5-(1-methyl-1H-pyrazol-4-yl)nicotinamide]",> 1
5,"Cn1cc(-c2cnc(N)c(C(=O)N[C@@H]3[C@@H](COc4ccccc4)CCC3(F)F)c2)cn1 (relative stereo) [Example 79, 2-amino-N-(trans-2,2-difluoro-5-(phenoxymethyl)cyclopentyl)-5-(1-methyl-1H-pyrazol-4-yl)nicotinamide]",> 1
6,"Cn1cc(-c2cnc(N)c(C(=O)N[C@H]3COC[C@@H]3N3CCOCC3)c2)cn1 (relative stereo) [Example 90, 2-amino-5-(1-methyl-1H-pyrazol-4-yl)-N-(trans-4-morpholinotetrahydrofuran-3-yl)nicotinamide]",> 1
7,"Cn1cc(-c2cnc(N)c(C(=O)N[C@H]3COC[C@@H]3N3CCCC3)c2)cn1 (relative stereo) [Example 91, 2-amino-5-(1-methyl-1H-pyrazol-4-yl)-N-(trans-4-(pyrrolidin-1-yl)tetrahydrofuran-3-yl)nicotinamide]",> 1
8,"Cn1cc(-c2cnc(N)c(C(=O)N[C@H]3COC[C@H]3O)c2)cn1 (relative stereo) [Example 92, 2-amino-N-(cis-4-hydroxytetrahydrofuran-3-yl)-5-(1-methyl-1H-pyrazol-4-yl)nicotinamide]",> 1
9,"CC(C)N1C[C@H](NC(=O)c2cc(-c3cnn(C)c3)cnc2N)[C@@H](OCc2ccccc2)C1 (relative stereo) [Example 94, 2-amino-N-(trans-4-(benzyloxy)-1-isopropylpyrrolidin-3-yl)-5-(1-methyl-1H-pyrazol-4-yl)nicotinamide]",> 1
10,"Cn1cc(-c2cnc(N)c(C(=O)N[C@H]3CCC[C@@H]3OCc3cccc([N+](=O)[O-])c3)c2)cn1 [Example 30, 2-amino-5-(1-methyl-1H-pyrazol-4-yl)-N-((1S,2S)-2-((3-nitrobenzyl)oxy)cyclopentyl)nicotinamide]",> 1
11,"Cn1cc(-c2cnc(N)c(C(=O)N[C@H]3CCC[C@@H]3OCc3cccc(C#N)c3)c2)cn1 [Example 31, 2-amino-N-((1S,2S)-2-((3-cyanobenzyl)oxy)cyclopentyl)-5-(1-methyl-1H-pyrazol-4-yl)nicotinamide]",> 1
12,"Cn1cc(-c2cnc(N)c(C(=O)N[C@H]3CCC[C@@H]3OCc3cccc(O)c3)c2)cn1 [Example 32, 2-amino-N-((1S,2S)-2-((3-hydroxybenzyl)oxy)cyclopentyl)-5-(1-methyl-1H-pyrazol-4-yl)nicotinamide]",> 1
13,"COc1ccc(CO[C@H]2CCC[C@@H]2NC(=O)c2cc(-c3cnn(C)c3)cnc2N)cc1 [Example 35, 2-amino-N-((1S,2S)-2-((4-methoxybenzyl)oxy)cyclopentyl)-5-(1-methyl-1H-pyrazol-4-yl)nicotinamide]",> 1
14,"COc1ccc(CO[C@@H]2CCC[C@H]2NC(=O)c2cc(-c3cnn(C)c3)cnc2N)cc1 [Example 36, 2-amino-N-((1R,2R)-2-((4-methoxybenzyl)oxy)cyclopentyl)-5-(1-methyl-1H-pyrazol-4-yl)nicotinamide]",> 1
15,"COC(=O)c1cccc(CO[C@H]2CCC[C@@H]2NC(=O)c2cc(-c3cnn(C)c3)cnc2N)c1 [Example 42, methyl 3-((((1S,2S)-2-(2-amino-5-(1-methyl-1H-pyrazol-4-yl)nicotinamido)cyclopentyl)oxy)methyl)benzoate]",> 1
16,"Cn1cc(-c2cnc(N)c(C(=O)N[C@H]3CCC[C@@H]3OCc3cccc(Br)c3)c2)cn1 [Example 51, 2-amino-N-((1S,2S)-2-((3-bromobenzyl)oxy)cyclopentyl)-5-(1-methyl-1H-pyrazol-4-yl)nicotinamide]",> 1
17,"COC(=O)CNC(=O)c1cccc(CO[C@H]2CCC[C@@H]2NC(=O)c2cc(-c3cnn(C)c3)cnc2N)c1 [Example 55, methyl (3-((((1S,2S)-2-(2-amino-5-(1-methyl-1H-pyrazol-4-yl)nicotinamido)cyclopentyl)oxy)methyl)benzoyl)glycinate]",> 1
18,"Cn1cc(-c2cnc(N)c(C(=O)N[C@H]3CCC[C@@H]3OCc3cccc(C(=O)NCCO)c3)c2)cn1 [Example 56, 2-amino-N-((1S,2S)-2-((3-((2-hydroxyethyl)carbamoyl)benzyl)-oxy)cyclopentyl)-5-(1-methyl-1H-pyrazol-4-yl)nicotinamide]",> 1

row,Structure (SMILES),IC50 [µM]
1,"Cn1cc(-c2cnc(N)c(C(=O)N[C@H]3CCC[C@@H]3OCc3cccc(NC(=O)C4CCNCC4)c3)c2)cn1 [Example 57, 2-amino-5-(1-methyl-1H-pyrazol-4-yl)-N-((1S,2S)-2-((3-(piperidine-4-carboxamido)benzyl)oxy)cyclopentyl)nicotinamide]",> 1
2,"C[C@H](N)C(=O)Nc1cccc(CO[C@H]2CCC[C@@H]2NC(=O)c2cc(-c3cnn(C)c3)cnc2N)c1 [Example 58, 2-amino-N-((1S,2S)-2-((3-((S)-2-aminopropanamido)benzyl)oxy)-cyclopentyl)-5-(1-methyl-1H-pyrazol-4-yl)nicotinamide]",> 1
3,"CC(=O)N[C@@H](C)C(=O)Nc1cccc(CO[C@H]2CCC[C@@H]2NC(=O)c2cc(-c3cnn(C)c3)cnc2N)c1 [Example 59, N-((1S,2S)-2-((3-((S)-2-acetamidopropanamido)benzyl)oxy)-cyclopentyl)-2-amino-5-(1-methyl-1H-pyrazol-4-yl)nicotinamide]",> 1
4,"Cn1cc(-c2cnc(N)c(C(=O)N[C@H]3CCC[C@@H]3OCc3ccc(-n4nccn4)cc3)c2)cn1 [Example 62, N-((1S,2S)-2-((4-(2H-1,2,3-triazol-2-yl)benzyl)oxy)cyclopentyl)-2-amino-5-(1-methyl-1H-pyrazol-4-yl)nicotinamide]",> 1
5,"Cn1cc(-c2cnc(N)c(C(=O)N[C@H]3CCC[C@@H]3O)c2)cn1 [Example 69, 2-amino-N-((1S,2S)-2-hydroxycyclopentyl)-5-(1-methyl-1H-pyrazol-4-yl)nicotinamide]",> 1
6,"CCNc1ncc(-c2cnn(C)c2)cc1C(=O)N[C@H]1CCC[C@@H]1OCc1ccccc1 [Example 71, N-((1S,2S)-2-(benzyloxy)cyclopentyl)-2-(ethylamino)-5-(1-methyl-1H-pyrazol-4-yl)nicotinamide]",> 1
7,"Cc1ccc(CNc2ncc(-c3cnn(C)c3)cc2C(=O)N[C@H]2CCC[C@@H]2OCc2ccccc2)cc1C [Example 72, N-((1S,2S)-2-(benzyloxy)cyclopentyl)-2-((3,4-dimethylbenzyl-)amino)-5-(1-methyl-1H-pyrazol-4-yl)nicotinamide]",> 1
8,"Cn1cc(-c2cnc(N)c(C(=O)N[C@H]3CCC4(OCCO4)[C@@H]3OCc3ccccc3)c2)cn1 [Example 73, 2-amino-N-((6R,7S)-6-(benzyloxy)-1,4-dioxaspiro[4.4]nonan-7-yl)-5-(1-methyl-1H-pyrazol-4-yl)nicotinamide]",> 1
9,"Cn1cc(-c2cnc(N)c(C(=O)N[C@H]3CCC[C@@H]3COc3cccc(C(=O)N4CCCCC4)c3)c2)cn1 [Example 83, 2-amino-5-(1-methyl-1H-pyrazol-4-yl)-N-((1S,2S)-2-((3-(piperidine-1-carbonyl)phenoxy)methyl)cyclopentyl)nicotinamide]",> 1
10,"C[C@H](CNC(=O)c1cc(-c2cnn(C)c2)cnc1N)OCc1ccccc1 [Example 95, (R)-2-amino-N-(2-(benzyloxy)propyl)-5-(1-methyl-1H-pyrazol-4-yl)nicotinamide]",> 1
11,"C[C@@H](CNC(=O)c1cc(-c2cnn(C)c2)cnc1N)OCc1ccccc1 [Example 96, (S)-2-amino-N-(2-(benzyloxy)propyl)-5-(1-methyl-1H-pyrazol-4-yl)nicotinamide]",> 1
12,"C[C@@H](COCc1ccccc1)NC(=O)c1cc(-c2cnn(C)c2)cnc1N [Example 97, (S)-2-amino-N-(1-(benzyloxy)propan-2-yl)-5-(1-methyl-1H-pyrazol-4-yl)nicotinamide]",> 1
13,"C[C@H](COCc1ccccc1)NC(=O)c1cc(-c2cnn(C)c2)cnc1N [Example 98, (R)-2-amino-N-(1-(benzyloxy)propan-2-yl)-5-(1-methyl-1H-pyrazol-4-yl)nicotinamide]",> 1
14,"Cn1cc(-c2cnc(N)c(C(=O)NC(C)(C)COCc3ccccc3)c2)cn1 [Example 99, 2-amino-N-(1-(benzyloxy)-2-methylpropan-2-yl)-5-(1-methyl-1H-pyrazol-4-yl)nicotinamide]",> 1
15,"Cc1ccc(COC[C@@H](C)NC(=O)c2cc(-c3cnn(C)c3)cnc2N)cc1C [Example 100, (R)-2-amino-N-(1-((3,4-dimethylbenzyl)oxy)propan-2-yl)-5-(1-methyl-1H-pyrazol-4-yl)nicotinamide]",> 1
16,"C[C@H](COCc1ccc(Cl)cc1)NC(=O)c1cc(-c2cnn(C)c2)cnc1N [Example 102, (R)-2-amino-N-(1-((4-chlorobenzyl)oxy)propan-2-yl)-5-(1-methyl-1H-pyrazol-4-yl)nicotinamide]",> 1
17,"C[C@@H](CNC(=O)c1cc(-c2cnn(C)c2)cnc1N)OCc1ccc(Cl)cc1 [Example 103, (S)-2-amino-N-(2-((4-chlorobenzyl)oxy)propyl)-5-(1-methyl-1H-pyrazol-4-yl)nicotinamide]",> 1
